# Assay results from ChEMBL document CHEMBL1201862, “PubChem BioAssay data set” (2004).
# Calls of active or inactive are those of the source.
# Experiments:
# [1] = target: T1, Polyadenylate-binding protein 1 (Homo sapiens, UniProt P11940); experiment: PABP inhibition in translation initiation, SAR follow-up (AID 435018); type: functional
# [2] = target: T2, Eukaryotic translation initiation factor 4H (Homo sapiens, UniProt Q15056); experiment: inhibitors of translation initiation factor eIF4H – SAR follow-up (AID 435011); type: functional
# [3] = target: T1, Polyadenylate-binding protein 1; experiment: blockers of PABP interaction with poly(A) – biochemical, fluorescence polarization, […] (AID 2014)
# [4] = target: T2, Eukaryotic translation initiation factor 4H; experiment: eIF4H binding inhibition – biochemical, uHTS, fluorescence polarization, translation initiation inhibitor project, primary screen (AID 2012)
# Vero = experiment: host cell viability loss, Vero E6 – synthesized analogs, cytotoxicity control for West Nile virus antiviral project, SAR follow-up (AID 2244); type: functional; settings: Chlorocebus sabaeus
# Procathepsin L = Procathepsin L (Homo sapiens, UniProt P07711)
# Procathepsin L, sequence (P07711 whole entry): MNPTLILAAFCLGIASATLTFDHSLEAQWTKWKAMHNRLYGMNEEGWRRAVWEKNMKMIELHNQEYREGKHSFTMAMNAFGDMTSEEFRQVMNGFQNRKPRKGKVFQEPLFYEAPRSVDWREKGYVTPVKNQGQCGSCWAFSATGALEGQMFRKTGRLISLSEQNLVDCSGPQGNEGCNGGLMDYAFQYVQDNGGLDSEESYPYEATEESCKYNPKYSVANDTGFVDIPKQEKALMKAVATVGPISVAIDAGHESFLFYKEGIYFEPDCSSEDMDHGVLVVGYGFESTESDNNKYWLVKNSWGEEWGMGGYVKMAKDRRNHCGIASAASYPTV
# Aspartyl aminopeptidase = target: T3, Aspartyl aminopeptidase (Plasmodium falciparum 3D7, UniProt Q8I2J3)
# T3 sequence (Q8I2J3 whole entry): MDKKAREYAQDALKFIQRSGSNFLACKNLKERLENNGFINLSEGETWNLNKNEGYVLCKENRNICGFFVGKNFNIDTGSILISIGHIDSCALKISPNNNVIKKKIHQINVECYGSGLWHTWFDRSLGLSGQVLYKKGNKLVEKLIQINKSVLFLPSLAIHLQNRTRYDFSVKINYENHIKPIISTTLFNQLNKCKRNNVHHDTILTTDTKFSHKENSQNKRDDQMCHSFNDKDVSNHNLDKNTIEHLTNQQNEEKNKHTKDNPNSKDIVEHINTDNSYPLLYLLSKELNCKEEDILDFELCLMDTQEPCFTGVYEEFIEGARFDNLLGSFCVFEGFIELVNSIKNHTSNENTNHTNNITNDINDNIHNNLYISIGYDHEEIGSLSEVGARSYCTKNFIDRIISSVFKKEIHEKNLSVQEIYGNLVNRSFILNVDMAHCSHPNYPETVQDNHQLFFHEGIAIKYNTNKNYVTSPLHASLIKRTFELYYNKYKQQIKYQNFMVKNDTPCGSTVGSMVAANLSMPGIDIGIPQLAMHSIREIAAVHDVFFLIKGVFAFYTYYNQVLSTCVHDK
# Staphylococcus aureus = experiment: Inhibitors of Bacterial Quorum Sensing Structure Activity Relationship (SAR) Analysis: Dose Response Assay. [Related pubchem assays: 700, 527 ]; type: functional, organism-based
# [5] = target: G-protein coupled receptor 35 (Homo sapiens, UniProt Q9HC97); experiment: inhibition of zaprinast-stimulated GPR35 beta-arrestin translocation – imaging, U2OS, beta-arrestin-GFP, zaprinast agonist, primary screen (AID 2058); type: functional;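 further: antagonist potency meaning inhibition of agonist-induced arrestin redistribution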
# G-protein coupled receptor 35, sequence (Q9HC97 whole entry): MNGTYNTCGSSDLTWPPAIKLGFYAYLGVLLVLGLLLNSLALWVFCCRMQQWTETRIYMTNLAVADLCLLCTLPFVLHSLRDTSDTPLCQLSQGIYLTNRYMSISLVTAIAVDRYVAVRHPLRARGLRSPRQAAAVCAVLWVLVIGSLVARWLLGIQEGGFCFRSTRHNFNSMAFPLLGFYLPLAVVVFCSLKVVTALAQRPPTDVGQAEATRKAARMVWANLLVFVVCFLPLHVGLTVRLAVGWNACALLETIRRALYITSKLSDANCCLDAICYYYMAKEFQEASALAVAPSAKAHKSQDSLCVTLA
# T1 sequence (P11940 whole entry): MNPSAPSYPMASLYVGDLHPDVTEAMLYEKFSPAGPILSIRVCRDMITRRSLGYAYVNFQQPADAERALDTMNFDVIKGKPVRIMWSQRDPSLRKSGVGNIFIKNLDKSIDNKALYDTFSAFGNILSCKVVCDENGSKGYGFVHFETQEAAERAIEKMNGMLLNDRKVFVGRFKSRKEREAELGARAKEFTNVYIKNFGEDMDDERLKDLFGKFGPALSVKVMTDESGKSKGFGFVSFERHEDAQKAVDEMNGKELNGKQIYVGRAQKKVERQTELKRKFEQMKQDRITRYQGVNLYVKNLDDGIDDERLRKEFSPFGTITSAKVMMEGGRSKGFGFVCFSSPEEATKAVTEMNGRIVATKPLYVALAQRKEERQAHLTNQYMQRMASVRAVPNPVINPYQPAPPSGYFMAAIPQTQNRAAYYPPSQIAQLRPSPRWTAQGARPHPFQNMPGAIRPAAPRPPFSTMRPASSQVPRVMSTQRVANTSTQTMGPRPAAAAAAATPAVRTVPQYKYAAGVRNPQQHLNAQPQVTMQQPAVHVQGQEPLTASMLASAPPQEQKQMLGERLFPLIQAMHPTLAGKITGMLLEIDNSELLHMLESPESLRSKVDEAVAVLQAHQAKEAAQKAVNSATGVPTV
compound,measurement,setting,value
CCn1c(=O)n(CC)c2cc(NC(=O)C(C)c3ccccc3)c(Br)cc21 (centres undefined),IC50,[1],9.4 µM (active)
same,IC50,[2],> 100 µM (inactive)
same,IC50,[3],21.5 µM (active)
same,IC50,[4],> 100 µM (inactive)
O=C(Nc1nc(-c2ccccc2)cs1)c1ccccc1Cl,CC50,Vero,14 µM (active)
O=C(Nn1cnnc1)c1ccccc1-c1ccccc1,IC50,Procathepsin L,> 59.6 µM (not active)
same,IC50,Aspartyl aminopeptidase,2.89 µM (active)
CC1CCCN(C(C(=O)Nc2ccc3c(c2)OCCO3)c2ccccc2)C1 (centres undefined),IC50,Staphylococcus aureus,0.125 µM (active)
CN1CC=C2C(C#N)=C(N)C(C#N)(C#N)C(c3ccsc3)C2C1 (centres undefined),IC50,[5],0.991 µM (active)
